Laboratory results as given in patent publication US20250042857A1, “SOS1 Inhibitor With Pyrido-Fused Six-Membered Ring Structure” (HAIHE BIOPHARMA CO., LTD., priority 2021, published 2025).

The compounds below were run against KRAS-G12C/SOS1 (Homo sapiens (Human), UniProt Q07889) (assay: Detection of inhibitory effects of compounds on KRAS-G12C/SOS1 (KRASG12C/SOS binding kit, HTRF)). Conditions: Em665/620, read-out: IC50, inhibitory activity on interaction of KRAS-G12C/SOS1.
Description: Experimental objective: The inhibitory effects of the tested compounds on KRAS-G12C/SOS1 were detected. IC50 was used to characterize the inhibitory ability of the compounds on the KRAS-G12C/SOS1. The lower IC50 value indicated the stronger inhibitory ability. BI-3406 was used as a positive control compound.
Experimental reagents: KRASG12C/SOS binding kit (Cisbio, cat. 63ADK000CB16PEG); DMSO (Sigma, cat. D8418-1L); and 384-well white plate (PerkinElmer, cat. 6007290)
• 1. Preparation of compounds: the test compounds were dissolved in 100% DMSO to obtain 10 mM stock solutions and the stock solutions were stored in a refrigerator in the dark. • 2. Kinase reaction process:
Preparation of compounds: the test compounds had the concentration of 5,000 nM and diluted in a 384-well plate into a 100% DMSO solution at the 200-fold final concentration, and the compounds were diluted 3-fold with 10 concentrations. 50 nL of the compounds at the 200-fold final concentration were transferred to the plate of interest, the 384-well plate, using a dispenser Echo 550. 50 nL of 100% DMSO was added to each negative control well and positive control well.
A Tag1-SOS1 solution at the 4-fold final concentration was prepared using a diluent buffer.
2.5 μL of the Tag1-SOS1 solution at the 4-fold final concentration was added to the 384-well plate.
A Tag2-KRAS-G12C solution at the 4-fold final concentration was prepared using the diluent buffer.
2.5 μL of the Tag2-KRAS-G12C solution at the 4-fold final concentration was respectively added into compound wells and the positive control wells; and 2.5 μL of the diluent buffer was added to the negative control wells.
The 384-well plate was centrifuged at 1,000 rpm for 30 seconds, shaken and mixed uniformly, and incubated at room temperature for 15 minutes.
An Anti-Tag1-TB3+ solution at the 1-fold final concentration and an Anti-Tag2-XL665 solution at the 1-fold final concentration were prepared using a detection buffer, the two solutions were mixed uniformly to obtain a Mix solution, and 5 μL of the Mix solution was added into each well.
The 384-well plate was centrifuged at 1,000 rpm for 30 seconds, shaken and mixed uniformly, and incubated at 4° C. for 120 minutes.
Em665/620 was read using an Envision microplate reader.
Inhibition %=(Max signal−Compound signal)/(Max signal−Min signal)×100 Calculation formula • wherein the Min signal was the mean value of the negative control wells, and the Max signal was the mean value of the positive control wells.
A dose-response curve was fitted using the log value of the concentration as an X axis and the percentage of the inhibitory rate as a Y axis by using the log(inhibitor) vs. response-variable slope of an analytical software GraphPadPrism5, thereby obtaining the IC50 value of each compound on an enzyme activity.

Sequence of KRAS-G12C/SOS1 (Q07889 whole entry, stated change not applied): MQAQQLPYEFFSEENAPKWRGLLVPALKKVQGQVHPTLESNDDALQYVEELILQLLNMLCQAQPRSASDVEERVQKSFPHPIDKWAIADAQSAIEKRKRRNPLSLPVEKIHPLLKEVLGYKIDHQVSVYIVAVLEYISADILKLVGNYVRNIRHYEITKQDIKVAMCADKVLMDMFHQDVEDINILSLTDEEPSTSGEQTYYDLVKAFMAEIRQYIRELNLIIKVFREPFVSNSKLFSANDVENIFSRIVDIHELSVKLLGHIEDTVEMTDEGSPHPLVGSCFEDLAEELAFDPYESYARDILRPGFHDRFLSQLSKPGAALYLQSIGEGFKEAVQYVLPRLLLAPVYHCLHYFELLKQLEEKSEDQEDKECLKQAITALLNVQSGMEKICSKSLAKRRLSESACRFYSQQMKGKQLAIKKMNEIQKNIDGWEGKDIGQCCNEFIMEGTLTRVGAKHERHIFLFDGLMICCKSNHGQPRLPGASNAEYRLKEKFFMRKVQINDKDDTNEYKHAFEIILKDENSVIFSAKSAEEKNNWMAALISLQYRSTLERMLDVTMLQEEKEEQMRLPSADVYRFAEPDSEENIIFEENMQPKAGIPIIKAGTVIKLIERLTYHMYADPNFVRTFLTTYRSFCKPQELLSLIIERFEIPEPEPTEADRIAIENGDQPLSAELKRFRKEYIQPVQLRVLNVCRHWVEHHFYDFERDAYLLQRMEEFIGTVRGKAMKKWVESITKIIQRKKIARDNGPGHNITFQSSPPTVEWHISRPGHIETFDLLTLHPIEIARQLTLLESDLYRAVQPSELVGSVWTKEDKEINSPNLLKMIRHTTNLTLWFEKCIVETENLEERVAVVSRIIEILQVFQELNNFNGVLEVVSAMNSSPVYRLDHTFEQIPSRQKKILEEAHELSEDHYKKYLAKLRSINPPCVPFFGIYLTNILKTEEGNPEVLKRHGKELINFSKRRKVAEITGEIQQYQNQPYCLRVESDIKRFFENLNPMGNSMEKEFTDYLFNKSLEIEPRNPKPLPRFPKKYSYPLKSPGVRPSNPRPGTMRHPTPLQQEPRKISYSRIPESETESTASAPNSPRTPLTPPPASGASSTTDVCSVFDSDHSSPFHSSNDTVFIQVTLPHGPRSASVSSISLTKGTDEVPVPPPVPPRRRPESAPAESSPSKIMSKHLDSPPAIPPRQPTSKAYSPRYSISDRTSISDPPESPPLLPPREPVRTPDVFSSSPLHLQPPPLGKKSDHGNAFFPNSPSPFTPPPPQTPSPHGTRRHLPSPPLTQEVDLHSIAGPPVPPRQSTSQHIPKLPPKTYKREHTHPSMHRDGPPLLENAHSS

| SMILES | IC50 |
| --- | --- |
| C[C@@H](Nc1ccnc2cnc(C3(O)CCC(N4CCNCC4)CC3)cc12)c1cccc(C(F)F)c1F (single isomer, unassigned) [Compound B-97-P1] | ≤ 0.1 µM |
| Cc1cc(N[C@H](C)c2cccc(C(F)F)c2F)c2cc(C3(O)CCC(O)CC3)ncc2n1 (single isomer, unassigned) [Compound B-88-P1] | ≤ 0.1 µM |
| Cc1c([C@@H](C)Nc2ccnc3cnc(C4(O)CCC(O)CC4)cc23)cccc1C(F)(F)F (single isomer, unassigned) [Compound B-84-P2] | 0.1 to 0.5 µM |
| COc1cc2nccc(N[C@H](C)c3cccc(C(F)F)c3F)c2cc1OC [Compound A-1] | ≤ 0.1 µM |
| COc1cc2nccc(N[C@H](C)c3cccc(C(F)F)c3F)c2cc1C1CCN(C(C)=O)CC1 [Compound A-40] | ≤ 0.1 µM |
| COc1cc2c(N[C@H](C)c3cccc(C(F)F)c3F)ccnc2cc1OC1CCN(C(C)=O)CC1 [Compound A-16] | ≤ 0.1 µM |
| Cc1c(C(F)F)cccc1[C@@H](C)Nc1ccnc2cnc(C3(O)CCC(O)CC3)cc12 (single isomer, unassigned) [Compound B-86-P1] | 0.1 to 0.5 µM |
| COc1cc2nccc(N[C@H](C)c3cccc(C(F)F)c3F)c2cc1C1CCS(=O)(=O)CC1 [Compound A-46] | ≤ 0.1 µM |
| Cc1c(C(F)F)cccc1[C@@H](C)Nc1ccnc2cnc(C3(O)CCC(O)CC3)cc12 (single isomer, unassigned) [Compound B-86-P2] | 0.1 to 0.5 µM |
| C[C@@H](Nc1ccnc2cnc(C3(O)CCC(N(C)C)CC3)cc12)c1cccc(C(F)F)c1F (single isomer, unassigned) [Compound B-94-P1] | ≤ 0.1 µM |
| COc1cc2nccc(N[C@H](C)c3cccc(C(F)F)c3F)c2cc1O[C@H]1CCOC1 [Compound A-3] | ≤ 0.1 µM |
| COc1cc2nccc(N[C@H](C)c3cccc(C(F)F)c3F)c2cc1C1(OC)CCN(C(C)=O)CC1 [Compound A-59] | ≤ 0.1 µM |
| COc1cc2nccc(N[C@H](C)c3cccc(C(F)F)c3F)c2cc1O[C@@H]1CCN(C(C)=O)C1 [Compound A-7] | 0.1 to 0.5 µM |
| Cc1c([C@@H](C)Nc2ccnc3cnc(C4(O)CCC(O)CC4)cc23)cccc1C(F)(F)F (single isomer, unassigned) [Compound B-84-P1] | 0.1 to 0.5 µM |
| COc1cc2nccc(N[C@H](C)c3cccc(C#N)c3C)c2cc1O[C@H]1CCOC1 [Compound A-4] | 0.1 to 0.5 µM |
| COc1cc2nccc(N[C@H](C)c3cccc(C(F)F)c3F)c2cc1OC1CCNCC1 [Compound A-17] | ≤ 0.1 µM |
| COc1cc2nccc(N[C@H](C)c3cccc(C(F)F)c3F)c2cc1C1(O)CCN(C(C)=O)CC1 [Compound A-58] | ≤ 0.1 µM |
| COc1cc2nccc(N[C@H](C)c3cccc(C(F)F)c3F)c2cc1C1CCN(S(C)(=O)=O)CC1 [Compound A-41] | ≤ 0.1 µM |
| COc1cc2nccc(N[C@H](C)c3cccc(C(F)F)c3F)c2cc1OC1CCN(C(C)=O)CC1 [Compound A-18] | ≤ 0.1 µM |
| COc1cc2nccc(N[C@H](C)c3cccc(C(F)F)c3F)c2cc1C1=CCN(C(C)=O)CC1 [Compound A-39] | ≤ 0.1 µM |
| COc1cc2nccc(N[C@H](C)c3cccc(C(F)F)c3F)c2cc1O[C@H]1CCN(C(C)=O)C1 [Compound A-6] | ≤ 0.1 µM |

The next lines start with the values.

| IC50 | SMILES |
| --- | --- |
| ≤ 0.1 µM | CC(=O)C1CCN(c2cc3c(N[C@H](C)c4cccc(C(F)F)c4F)ccnc3c(C)n2)CC1 [Compound B-66] |
| ≤ 0.1 µM | C[C@@H](Nc1ccnc2cnc(N3CCN(CCO)CC3)cc12)c1cccc(C(F)F)c1F [Compound B-43] |
| ≤ 0.1 µM | C[C@@H](Nc1ccnc2cnc(N3CCC(N(C)C)CC3)cc12)c1cccc(C(F)F)c1F [Compound B-61] |
| ≤ 0.1 µM | COC(=O)C1CCC(O)(c2cc3c(N[C@H](C)c4cccc(C(F)F)c4F)ccnc3cn2)CC1 (stereo partly shown) [Compound B-99] |
| ≤ 0.1 µM | C[C@@H](Nc1ccnc2cnc(N3CCC(O)C3=O)cc12)c1cccc(C(F)F)c1F (stereo partly shown) [Compound B-58] |
| ≤ 0.1 µM | C[C@@H](Nc1ccnc2cnc(C(C)(O)C3CC3)cc12)c1cccc(C(F)F)c1F (stereo partly shown) [Compound B-106] |
| ≤ 0.1 µM | C[C@@H](Nc1ccnc2cnc(C(C)(C)O)cc12)c1cccc(C(F)F)c1F [Compound B-105] |
